Measured values as given in article PMC8658022, “Towards Property Profiling: SYNTHESIS and SAR Probing of New Tetracyclic Diazaphenothiazine Analogues” (International Journal of Molecular Sciences, 2021).
≈ marks a conversion by molar mass, not a printed value. One block for each compound: values may come before it.

Assays:
[1] = experimentally determined lipophilicity (logPTLC); format: physicochemical; details: thin-layer chromatography (TLC)
Excerpt: In order to examine the lipophilic profile of the investigated compounds, the empirically determined logPTLC parameters (see Table 1) were compared with the theoretically approximated lipophilicity coefficients (clogP) using an ensemble of in silico predictors, e.g., clogP, Molinspiration, Osiris, HyperChem 7.0, Sybyl-X, MarvinSketch 15, ACD/ChemSketch 2015, Dragon 6.0, Kowwin, XlogP3, ChemDraw and ACD/Percepta programs. Subsequently, the deduced clogP parameters were cross-compared with the experimental logPTLC and inter-correlated with each other as presented in Figure 5. A good correlation was obtained (r = 0.94) for the MarvinSketch-made clogP values and the empirical logPTLC was recorded, respectively. […] A quite high inter-correlation was observed among the programs for lipophilicity specification. Obviously, some variations in clogP values resulted from different in silico algorithms (atom/fragment- or descriptor-based) implemented in the programs and/or training data employed in the training step [33].

[2] = tested on: A549 (human lung carcinoma); experiment: WST-1 cell proliferation assay, A549; format: cell-based; details: mean ± std
Method: (§1) Compounds were evaluated for their antiproliferative activity using […] cultured cell lines: A549 (human lung carcinoma, ATCC, Manassas, VA, USA), SNB-19 (human glioblastoma, DSMZ, German Collection of Microorganisms and Cell Cultures), T-47D (human breast cancer, ATCC, Manassas, VA, USA) and NHDF (normal human dermal fibroblasts, ATCC, Manassas, VA, USA). The cultured cells were kept at 37 °C and 5% CO2. The cells were seeded (1 × 10^4 cells/well/100 μL DMEM supplemented with 10% FCS and streptomycin and penicillin) using 96-well plates (Corning). Cells were counted in a hemocytometer (Burker chamber) using a phase contrast Olympus IX50 microscope equipped with Sony SSC-DC58 AP camera and Olympus DP10 digital camera.
(§2) The antiproliferative effect of the compounds exerted on cancer and normal cells was determined using the Cell Proliferation Reagent WST-1 assay (Roche Molecular Biochemicals Mannheim, Germany). This assay is based on a colorimetric method using the enzymatic ability of viable cells to cause the bright red-colored stable tetrazolium monosodium salt [2-(4-iodophenyl)-3-(4-nitrophenyl)-5-(2,4-disulfophenyl)–2H-tetra-zolium] to transform into the dark red-colored soluble formazan. […] An increase in the amount of formazan dye formed correlated with the number of metabolically active cells in the culture. The formazan dye produced by metabolically active cells was quantified by absorbance reading at appropriate wavelengths. The examined cells were exposed to the tested compounds (1 mg/mL DMSO stock) for 72 h at various concentrations (0.1 μg/mL–100 μg/mL). The control was performed in order to eliminate the DMSO effect at the concentration used. Cell cultures were incubated with WST-1 (10 μL) for 1 h. The absorbance of the samples was measured against a background control at 450 nm using a microplate reader with a reference wavelength at 600 nm. The obtained results are expressed as the means of at least two independent experiments performed in triplicate. The antiproliferative activity of the tested compounds were compared to cisplatinum. The values of IC50 (a concentration of a compound that is required for 50% inhibition) were calculated from the dose-response relationship with respect to control.

[3] = tested on: SNB-19 (human glioblastoma); experiment: WST-1 cell proliferation assay, SNB-19; format: cell-based; details: mean ± std
Method: as §1, §2

[4] = tested on: T47D (human breast cancer); experiment: WST-1 cell proliferation assay, T47D; format: cell-based; details: 72 h exposure, mean ± std
Method: as §1, §2

[5] = tested on: NHDF (normal human dermal fibroblasts); experiment: WST-1 cell proliferation assay, NHDF normal cells; format: cell-based; details: normal cell line, 72 h exposure, mean ± std
Method: as §1, §2

[6] = tested on: Staphylococcus aureus ATCC 29213; experiment: broth dilution micro-method MIC, S. aureus ATCC 29213; format: cell-based; details: ATCC29213, 24 h, 37 °C
Method: (§3) The synthesized compounds were evaluated for in vitro antibacterial activity against representatives of multidrug-resistant bacteria and clinical isolates of methicillin-resistant Staphylococcus aureus (MRSA) 63718, SA 630, and SA 3202 that were obtained from the National Institute of Public Health (Prague, Czech Republic). S. aureus ATCC 29213 was used as a reference and quality control strain. Ampicillin (Sigma, St. Louis, MO, USA) was employed as the standard. Prior to testing, each strain was passaged onto nutrient agar (Oxoid, Basingstoke, UK) with 5% of bovine blood, and bacterial inocula were prepared by suspending a small portion of a bacterial colony in sterile phosphate-buffered saline (pH 7.2–7.3). The cell density was adjusted to 0.5 McFarland units using a densitometer (Densi-La-Meter, LIAP, Riga, Latvia). This inoculum was diluted to reach the final concentration of bacterial cells 5 × 10^5 CFU/mL in the wells. […] The final concentrations of the evaluated compounds ranged from 256 to 0.008 μg/mL. The broth dilution micro-method, modified according to the NCCLS (National Committee for Clinical Laboratory Standards) guidelines in Mueller–Hinton (MH) broth, was used to determine the minimum inhibitory concentration (MIC). Drug-free controls, sterility controls, and controls consisting of MH broth and DMSO alone were included. The determination of results was performed visually after 24 h of static incubation in the darkness at 37 °C in an aerobic atmosphere. Each experiment was repeated at least three times.

[7] = tested on: methicillin-resistant S. aureus 63718; experiment: broth dilution micro-method MIC, MRSA 63718; format: cell-based; details: Staphylococcus aureus, clinical isolate, 24 h, 37 °C
Method: as §3

[8] = tested on: methicillin-resistant S. aureus SA 630; experiment: broth dilution micro-method MIC, MRSA SA 630; format: cell-based; details: Staphylococcus aureus, clinical isolate, 24 h, 37 °C
Method: as §3

[9] = tested on: methicillin-resistant S. aureus SA 3202; experiment: broth dilution micro-method MIC, MRSA SA 3202; format: cell-based; details: Staphylococcus aureus, clinical isolate, 24 h, 37 °C
Method: as §3

MRSA isolates = experiment: broth dilution micro-method MIC, MRSA isolates (pooled statement); format: cell-based; details: Staphylococcus aureus; range over three MRSA isolates and both compounds; read-out: MICs against MRSA isolates
Method: as §3, with “The determination of results was performed visually after 24 h of static incubation in the darkness at 37 °C in an aerobic atmosphere. Each experiment was repeated at least three times.” left out

[10] = Homo sapiens, A549, 72 h exposure
[11] = Homo sapiens, SNB-19, 72 h exposure

Compound: C[n+]1cc2c(c3ccccc31)Nc1ccc(Br)nc1S2 [3b, 9-bromo-5-methyl-12H-quino[3,4-b]pyrido[5,6-e][1,4]thiazinium chloride]
chromatographic logP [1]: 4.8
IC50 [2, 10]: 23.8 ± 1.7 µM
IC50 [3, 11]: 4.1 ± 0.3 µM
IC50 ([4]; Homo sapiens, T47D): 5.2 ± 0.4 µM
IC50 ([5]; Homo sapiens, NHDF): 0.8 ± 0.05 µM
MIC [6]: 337 µM
MIC [7]: 337 µM
MIC [8]: 337 µM
MIC [9]: 337 µM

Compound: C[n+]1cc2c(c3ccccc31)Nc1cc(Br)cnc1S2 [3c, 10-bromo-5-methyl-12H-quino[3,4-b]pyrido[5,6-e][1,4]thiazinium chloride]
chromatographic logP [1]: 4.57
IC50 [2, 10]: 20.6 ± 1.2 µM
IC50 [3, 11]: 3.4 ± 0.2 µM
IC50 ([4]; Homo sapiens, T47D): 12.2 ± 1.7 µM
IC50 ([5]; Homo sapiens, NHDF): 11 ± 1.4 µM
MIC [6]: 42.1 µM
MIC [7]: 42.1 µM
MIC [8]: 21.1 µM
MIC [9]: 42.1 µM
MIC (MRSA isolates): 12.5 to 42.1 µM

Compound: C[n+]1cc2c(c3ccccc31)Nc1ccc(F)nc1S2 [3e, 9-fluoro-5-methyl-12H-quino[3,4-b]pyrido[5,6-e][1,4]thiazinium chloride]
chromatographic logP [1]: 4.24
IC50 [2, 10]: 2.1 ± 0.35 µM
IC50 [3, 11]: 0.4 ± 0.08 µM
IC50 ([4]; Homo sapiens, T47D): 2.8 ± 0.35 µM
IC50 ([5]; Homo sapiens, NHDF): 1.1 ± 0.14 µM
MIC [6]: 50.2 µM
MIC [7]: 25.1 µM
MIC [8]: 12.5 µM
MIC [9]: 25.1 µM
MIC (MRSA isolates): 12.5 to 42.1 µM

Compound: C[n+]1cc2c(c3ccccc31)Nc1ccc(I)nc1S2 [3f, 9-iodo-5-methyl-12H-quino[3,4-b]pyrido[5,6-e][1,4]thiazinium chloride]
chromatographic logP [1]: 5.09
IC50 [2, 10]: 115 ± 10.7 µM
IC50 [3, 11]: 62.5 ± 6.6 µM
IC50 ([4]; Homo sapiens, T47D): 128 ± 18.2 µM
IC50 ([5]; Homo sapiens, NHDF): 97.4 ± 6.2 µM
MIC [6]: 299 µM
MIC [7]: 299 µM
MIC [8]: 299 µM
MIC [9]: 299 µM

Compound: Cc1cc(Cl)nc2c1Nc1c(c[n+](C)c3ccccc13)S2 [3g, 9-chloro-5,11-dimethyl-12H-quino[3,4-b]pyrido[5,6-e][1,4]thiazinium chloride]
chromatographic logP [1]: 5.66
IC50 [2, 10]: 20 ± 1.6 µM
IC50 [3, 11]: 3.5 ± 0.2 µM
IC50 ([4]; Homo sapiens, T47D): 26.7 ± 1.6 µM
IC50 ([5]; Homo sapiens, NHDF): 3.8 ± 0.3 µM
MIC [6]: > 731 µM
MIC [7]: > 731 µM
MIC [8]: > 731 µM
MIC [9]: > 731 µM

Compound: Cc1cc(F)nc2c1Nc1c(c[n+](C)c3ccccc13)S2 [3h, 9-fluoro-5,11-dimethyl-12H-quino[3,4-b]pyrido[5,6-e][1,4]thiazinium chloride]
chromatographic logP [1]: 5.72
IC50 [2, 10]: 15.4 ± 1 µM
IC50 [3, 11]: 126 ± 14.8 µM
IC50 ([4]; Homo sapiens, T47D): 47.7 ± 2.8 µM
IC50 ([5]; Homo sapiens, NHDF): 28.5 ± 4 µM
MIC [6]: 383 µM
MIC [7]: 383 µM
MIC [8]: 383 µM
MIC [9]: 383 µM

Compound: COc1ccc2c(n1)Sc1c[n+](C)c3ccccc3c1N2 [3j, 9-methoxy-5-methyl-12H-quino[3,4-b]pyrido[5,6-e][1,4]thiazinium chloride]
chromatographic logP [1]: 4.2
IC50 [2, 10]: 1.7 ± 0.1 µM
IC50 [3, 11]: 6.1 ± 0.4 µM
IC50 ([4]; Homo sapiens, T47D): 8.1 ± 1 µM
IC50 ([5]; Homo sapiens, NHDF): 2 ± 0.3 µM
MIC [6]: 193 µM
MIC [7]: 193 µM
MIC [8]: 96 µM
MIC [9]: 193 µM

Compound: CC1(C)S[C@@H]2[C@H](NC(=O)[C@H](N)c3ccccc3)C(=O)N2[C@H]1C(=O)O [AMP, Ampicillin, reference compound]
MIC [6]: 5.72 µM (≈ 2 µg/mL)
MIC [7]: 45.8 µM (≈ 16 µg/mL)
MIC [8]: 45.8 µM (≈ 16 µg/mL)
MIC [9]: 45.8 µM (≈ 16 µg/mL)

Compound: N.N.[Cl][Pt][Cl] [cisplatinum, reference compound]
IC50 ([2]; 72 h exposure): 3 ± 0.2 µM
IC50 ([3]; 72 h exposure): 16.7 ± 1.3 µM
IC50 [4]: 9 ± 0.7 µM
IC50 [5]: 29.9 ± 3.3 µM

The next lines start with results.

chromatographic logP [1]: 3.53
IC50 [2, 10]: 70.3 ± 9.8 µM
IC50 [3, 11]: 132 ± 11.6 µM
IC50 ([4]; Homo sapiens, T47D): 46.2 ± 7.1 µM
MIC [6]: 212 µM
MIC [7]: 212 µM
MIC [8]: 106 µM
MIC [9]: 212 µM
Compound: C[n+]1cc2c(c3ccccc31)Nc1cccnc1S2 [3a, 5-methyl-12H-quino[3,4-b]pyrido[5,6-e][1,4]thiazinium chloride]
IC50 ([5]; Homo sapiens, NHDF): 21.1 ± 1.5 µM

chromatographic logP [1]: 4.62
IC50 [2, 10]: 2 ± 0.3 µM
IC50 [3, 11]: 1.3 ± 0.1 µM
IC50 ([4]; Homo sapiens, T47D): 2.3 ± 0.3 µM
MIC [6]: 381 µM
MIC [7]: 381 µM
MIC [8]: 381 µM
MIC [9]: 381 µM
Compound: C[n+]1cc2c(c3ccccc31)Nc1ccc(Cl)nc1S2 [3d, 9-chloro-5-methyl-12H-quino[3,4-b]pyrido[5,6-e][1,4]thiazinium chloride]
IC50 ([5]; Homo sapiens, NHDF): 7.7 ± 0.5 µM

chromatographic logP [1]: 4.17
IC50 [2, 10]: 69.3 ± 5.3 µM
IC50 [3, 11]: 22.1 ± 1.5 µM
IC50 ([4]; Homo sapiens, T47D): 18.9 ± 1.4 µM
MIC [6]: 203 µM
MIC [7]: 203 µM
MIC [8]: 101 µM
MIC [9]: 203 µM
Compound: Cc1ccnc2c1Nc1c(c[n+](C)c3ccccc13)S2 [3i, 5,11-dimethyl-12H-quino[3,4-b]pyrido[5,6-e][1,4]thiazinium chloride]
IC50 ([5]; Homo sapiens, NHDF): 0.4 ± 0.07 µM

chromatographic logP [1]: 2.93
IC50 [2, 10]: 30.1 ± 3.4 µM
IC50 [3, 11]: 18.7 ± 1.2 µM
IC50 ([4]; Homo sapiens, T47D): 36.8 ± 2.1 µM
MIC [6]: 424 µM
MIC [7]: 424 µM
MIC [8]: 424 µM
MIC [9]: 424 µM
Compound: C[n+]1cc2c(c3ccccc31)Nc1cnccc1S2 [4a, 5-methyl-5H-qujino[3,4-b]pyrido[3,4-e][1,4]thiazinium chloride]
IC50 ([5]; Homo sapiens, NHDF): 7.5 ± 0.2 µM
